Source: ChEMBL document CHEMBL1125660, “Synthesis and aromatase inhibitory activity of novel 1-(4-aminophenyl)-3-azabicyclo[3.1.0]hexane- and -[3.1.1]heptane-2,4- diones” (J Med Chem, 1991)

What was measured:
[1] = target: T1, Steroid 17-alpha-hydroxylase/17,20 lyase (Homo sapiens, UniProt P05093); type: functional
T1 sequence (P05093 whole entry): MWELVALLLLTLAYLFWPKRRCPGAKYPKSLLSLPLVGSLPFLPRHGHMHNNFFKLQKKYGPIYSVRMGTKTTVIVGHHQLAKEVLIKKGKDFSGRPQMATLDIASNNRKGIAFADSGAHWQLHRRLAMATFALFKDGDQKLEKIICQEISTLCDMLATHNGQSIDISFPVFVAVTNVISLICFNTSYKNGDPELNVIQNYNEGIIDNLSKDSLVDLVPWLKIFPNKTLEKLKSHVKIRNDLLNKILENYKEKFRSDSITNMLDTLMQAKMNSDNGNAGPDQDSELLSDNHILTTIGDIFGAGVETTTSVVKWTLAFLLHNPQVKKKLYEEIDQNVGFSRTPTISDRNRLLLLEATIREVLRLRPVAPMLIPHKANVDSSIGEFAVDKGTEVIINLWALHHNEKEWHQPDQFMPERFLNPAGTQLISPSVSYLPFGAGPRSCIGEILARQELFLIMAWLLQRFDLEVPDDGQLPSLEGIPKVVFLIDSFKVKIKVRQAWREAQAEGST

[2] = target: T2, Cytochrome P450 11B2, mitochondrial (Rattus norvegicus, UniProt P30099)
T2 sequence (P30099 whole entry): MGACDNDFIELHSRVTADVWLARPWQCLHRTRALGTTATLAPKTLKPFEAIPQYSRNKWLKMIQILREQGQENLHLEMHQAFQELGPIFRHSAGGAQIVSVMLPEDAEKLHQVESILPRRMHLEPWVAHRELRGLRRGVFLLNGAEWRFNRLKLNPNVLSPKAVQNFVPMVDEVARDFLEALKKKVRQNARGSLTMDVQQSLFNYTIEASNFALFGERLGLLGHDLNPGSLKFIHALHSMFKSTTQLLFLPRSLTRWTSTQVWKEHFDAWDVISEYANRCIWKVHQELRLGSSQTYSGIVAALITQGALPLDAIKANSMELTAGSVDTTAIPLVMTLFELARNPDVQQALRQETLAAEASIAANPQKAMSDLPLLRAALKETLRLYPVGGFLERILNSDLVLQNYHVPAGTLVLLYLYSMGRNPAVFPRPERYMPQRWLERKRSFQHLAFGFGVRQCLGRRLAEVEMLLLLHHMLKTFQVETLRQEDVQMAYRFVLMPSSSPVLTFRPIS

Aromatase [3] = target: T3, Aromatase (Rattus norvegicus, UniProt P22443); conditions: in vivo, po
T3 sequence (P22443 whole entry): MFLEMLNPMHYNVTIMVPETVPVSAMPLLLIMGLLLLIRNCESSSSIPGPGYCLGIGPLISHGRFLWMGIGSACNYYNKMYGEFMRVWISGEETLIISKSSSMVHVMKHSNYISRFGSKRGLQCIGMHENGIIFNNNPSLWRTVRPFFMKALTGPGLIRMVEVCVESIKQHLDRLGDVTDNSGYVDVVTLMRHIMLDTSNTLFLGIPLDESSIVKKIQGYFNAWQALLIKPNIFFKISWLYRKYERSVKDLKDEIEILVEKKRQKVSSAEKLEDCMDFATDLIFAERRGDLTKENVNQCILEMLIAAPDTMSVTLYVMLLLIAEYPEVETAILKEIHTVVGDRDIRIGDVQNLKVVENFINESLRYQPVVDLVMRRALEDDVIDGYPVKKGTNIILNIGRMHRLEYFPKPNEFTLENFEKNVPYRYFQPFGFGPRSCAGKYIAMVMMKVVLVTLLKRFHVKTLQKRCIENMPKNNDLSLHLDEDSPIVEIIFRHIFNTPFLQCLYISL

Rattus norvegicus [4] = species: Rattus norvegicus; type: functional; conditions: dose 31.3 mg/kg; route oral
Rattus norvegicus [5] = species: Rattus norvegicus; type: functional; conditions: dose 62.5 mg/kg; route oral
Rattus norvegicus [6] = species: Rattus norvegicus; type: functional; conditions: dose 125 mg/kg; route oral
Rattus norvegicus [7] = species: Rattus norvegicus; type: functional; conditions: dose 15.6 mg/kg; route oral
Rattus norvegicus [8] = species: Rattus norvegicus; type: functional; conditions: dose 125 mg/kg; route oral; remark: listed apart in the source
Rattus norvegicus [9] = species: Rattus norvegicus; type: functional; conditions: dose 15.6 mg/kg; route oral; remark: listed apart in the source
Rattus norvegicus [10] = species: Rattus norvegicus; type: functional; conditions: dose 62.5 mg/kg; route oral; remark: listed apart in the source
Rattus norvegicus [11] = species: Rattus norvegicus; type: functional; conditions: dose 125 mg/kg; route oral; remark: listed apart in the source
Rattus norvegicus [12] = species: Rattus norvegicus; type: functional; conditions: dose 25.6 mg/kg; route oral
Rattus norvegicus [13] = species: Rattus norvegicus; type: functional; conditions: dose 31.3 mg/kg; route oral; remark: listed apart in the source
Rattus norvegicus [14] = species: Rattus norvegicus; type: functional; conditions: dose 62.5 mg/kg; route oral; remark: listed apart in the source
Rattus norvegicus [15] = species: Rattus norvegicus; type: functional; conditions: dose 31.3 mg/kg
Rattus norvegicus [16] = species: Rattus norvegicus; type: functional; conditions: dose 62.5 mg/kg; route oral; remark: listed apart in the source
Rattus norvegicus [17] = species: Rattus norvegicus; type: functional; conditions: dose 12.5 mg/kg
Rattus norvegicus [18] = species: Rattus norvegicus; type: functional; conditions: dose 15.6 mg/kg
Rattus norvegicus [19] = species: Rattus norvegicus; type: functional; conditions: dose 31.3 mg/kg; remark: listed apart in the source
Rattus norvegicus [20] = species: Rattus norvegicus; type: functional; conditions: dose 62.5 mg/kg
Rattus norvegicus [21] = species: Rattus norvegicus; type: functional
Rattus norvegicus [22] = species: Rattus norvegicus; type: functional; conditions: dose 15.6 mg/kg; remark: listed apart in the source
Rattus norvegicus [23] = species: Rattus norvegicus; type: functional; conditions: dose 31.3 mg/kg; route oral; remark: listed apart in the source
[24] = target: T2, Cytochrome P450 11B2, mitochondrial; remark: listed apart in the source
[25] = target: T1, Steroid 17-alpha-hydroxylase/17,20 lyase; type: functional; remark: listed apart in the source
[26] = target: T2, Cytochrome P450 11B2, mitochondrial; remark: listed apart in the source
Aromatase [27] = target: T3, Aromatase; conditions: in vivo, po; remark: listed apart in the source
Rattus norvegicus [28] = species: Rattus norvegicus; type: functional; conditions: dose 100 mg/kg; route oral
Rattus norvegicus [29] = species: Rattus norvegicus; type: functional; conditions: dose 30 mg/kg; route oral
Rattus norvegicus [30] = species: Rattus norvegicus; type: functional; conditions: dose 100 mg/kg; route oral; remark: listed apart in the source
Rattus norvegicus [31] = species: Rattus norvegicus; type: functional; conditions: dose 30 mg/kg; route oral; remark: listed apart in the source
Rattus norvegicus [32] = species: Rattus norvegicus; type: functional; conditions: dose 100 mg/kg; route oral; remark: listed apart in the source
Rattus norvegicus [33] = species: Rattus norvegicus; type: functional; conditions: dose 30 mg/kg; route oral; remark: listed apart in the source
Rattus norvegicus [34] = species: Rattus norvegicus; type: functional; conditions: dose 30 mg/kg
Rattus norvegicus [35] = species: Rattus norvegicus; type: functional; remark: listed apart in the source
Rattus norvegicus [36] = species: Rattus norvegicus; type: functional; conditions: dose 30 mg/kg; route oral; remark: listed apart in the source
Rattus norvegicus [37] = species: Rattus norvegicus; type: functional; conditions: dose 100 mg/kg
[38] = target: T2, Cytochrome P450 11B2, mitochondrial; remark: listed apart in the source

Nc1ccc(C23CC(C2)C(=O)N(C2CCCCC2)C3=O)cc1
IC50 [1]: 140 µM
IC50 [2]: 140 µM
ED (Aromatase [3]): 0.3 mg/kg

Nc1ccc(C23CC2C(=O)N(CC2CCCCC2)C3=O)cc1 (stereo unspecified)
IC50 [1]: > 330 µM
Response (Rattus norvegicus [4]): 55%
Response (Rattus norvegicus [5]): 4.1%
Response (Rattus norvegicus [6]): 5%
Response (Rattus norvegicus [7]): 78.3%
Response (Rattus norvegicus [8]): 0%
Response (Rattus norvegicus [9]): 17.4%
Response (Rattus norvegicus [10]): 4.2%
Response (Rattus norvegicus [11]): 82.6%
Response (Rattus norvegicus [12]): 4.3%
Response (Rattus norvegicus [13]): 15%
Response (Rattus norvegicus [14]): 91.6%
No. of tumors (Rattus norvegicus [15]): 20
No. of tumors (Rattus norvegicus [16]): 24
New tumors (Rattus norvegicus [17]): 0
New tumors (Rattus norvegicus [18]): 3
New tumors (Rattus norvegicus [19]): 3
New tumors (Rattus norvegicus [20]): 0
No. of tumors (Rattus norvegicus [21]): 23
No. of tumors (Rattus norvegicus [22]): 23
Response (Rattus norvegicus [23]): 30%
IC50 [24]: > 330 µM
ED (Aromatase [3]): 1.5 mg/kg

Nc1ccc(C23CC2C(=O)N(CC2CCCCC2)C3=O)cc1 (stereo in doubt; (+)-1h)
IC50 [25]: > 34 µM
IC50 [26]: > 34 µM
ED (Aromatase [27]): 1 mg/kg

CCC1(c2ccc(N)cc2)CCC(=O)NC1=O (stereo unspecified) [AMINOGLUTETHIMIDE]
IC50 [25]: 60 µM
Response (Rattus norvegicus [28]): 66.6%
Response (Rattus norvegicus [29]): 91.6%
Response (Rattus norvegicus [30]): 22.2%
Response (Rattus norvegicus [31]): 4.1%
Response (Rattus norvegicus [32]): 11.2%
Response (Rattus norvegicus [33]): 4.25%
New tumors (Rattus norvegicus [34]): 4
No. of tumors (Rattus norvegicus [35]): 18
No. of tumors (Rattus norvegicus [36]): 24
New tumors (Rattus norvegicus [37]): 5
IC50 [38]: 110 µM
